The numbers were not newly measured in article PMC7553790 (The Journal of Experimental Medicine, 2020), which cites them from elsewhere.

Like-named read-outs stand apart in the source and are kept apart here. Where only a bound is given, the exact number is not on record here.

This data set concerns Aβ42. Conditions: cell-based studies.

By IC50 is commonly meant the concentration that inhibits the measured activity by half. Take `O=C(O)C1(c2ccc(-c3ccc(Cl)c(Cl)c3)c(F)c2)CC1` [CHF5074, 1-(3′,4′-Dichloro-2-fluoro[1,1′-biphenyl]-4-yl)-cyclopropanecarboxylic acid]: the IC50 (read-out: IC50 of decreasing Aβ42, ref Imbimbo et al., 2007) was 3.6 µM.

On to `O=C(O)[C@H](CC1CCC1)c1cc(Cl)c(OCC(F)(F)F)c(-c2ccc(C(F)(F)F)cc2)c1` [EVP-0015962], for which, for the setting “read-out: IC50 of Aβ42, ref Rogers et al., 2012”, the IC50 was greater than 0.02 µM.
